# Experimental data published in US20180015111A1, “METHODS FOR ON DEMAND PRE-EXPOSURE PROPHYLACTIC TREATMENT OF HIV INFECTION” (INSERM (INSTITUT NATIONAL DE LA SANTE ET DE LA RECHERCHE …, priority 2015, published 2018).
# Assay: Drug levels in plasma by LC-MS/MS as measure of adherence (Example 2)
# Type: in vivo, human
# Details: TDF-FTC group, first 113 participants enrolled; limit of detection 0.1 ng/ml tenofovir, 0.4 ng/ml FTC
# Protocol: Pill count was the first measure of adherence. Participants were asked to return their study-drug bottles at each visit, and a pill count of unused medication was performed. We also measured drug levels in plasma in the first participants who were enrolled. Plasma was tested for the presence of tenofovir and FTC with the use of a validated liquid chromatography-tandem mass spectrometry method with a limit of detection of 0.1 ng per milliliter for tenofovir and 0.4 ng per milliliter for FTC. This plasma assay was able to detect drugs up to 9 days after intake.
row,SMILES,rate of detection in plasma [%]
1,"Nc1nc(=O)n([C@@H]2CS[C@H](CO)O2)cc1F [FTC, 4-amino-5-fluoro-1-[(2R,5S)-2-(hydroxymethyl)-1,3-oxathiolan-5-yl]-1,2-dihydropyrimidin-2-one]",82
2,"C[C@H](Cn1cnc2c(N)ncnc21)OCP(=O)(O)O [tenofovir, ({[(2R)-1-(6-amino-9H-purin-9-yl)propan-2-yl]oxy}methyl)phosphonic acid]",86
